The target of this assay is CCR2 (Homo sapiens (Human), UniProt P41597). The assay can be described thus: MCP-1 Receptor Binding Assay in THP-1 Cells.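 Also: THP-1 is a human monocytic cell line, and nonspecific binding was defined with 1 µM unlabeled MCP-1.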 Conditions: 0.5 nM 125I labeled MCP-1, 2 hours at 30° C., read-out: Inhibition of MCP-1 Binding IC50 MCP1B.
CCR2, sequence (P41597 whole entry): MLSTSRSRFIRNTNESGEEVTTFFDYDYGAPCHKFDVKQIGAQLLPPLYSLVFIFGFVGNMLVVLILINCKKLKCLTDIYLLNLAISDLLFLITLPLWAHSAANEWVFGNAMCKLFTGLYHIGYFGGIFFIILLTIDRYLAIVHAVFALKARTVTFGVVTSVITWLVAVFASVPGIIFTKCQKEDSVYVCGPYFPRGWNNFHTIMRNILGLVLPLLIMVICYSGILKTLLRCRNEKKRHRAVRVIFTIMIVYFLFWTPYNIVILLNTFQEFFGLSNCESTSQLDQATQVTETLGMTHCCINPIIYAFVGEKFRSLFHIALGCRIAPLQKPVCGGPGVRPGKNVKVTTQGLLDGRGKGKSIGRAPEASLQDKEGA

With `CN(C)CC(O)[C@H]1CC[C@@H](N2CC(NC(=O)CNc3ncnc4ccc(C(F)(F)F)cc34)C2)CC1` (stereo partly drawn) [Example 23, N-(1-((1S,4s)-4-(2-(dimethylamino)-1-hydroxyethyl)cyclohexyl)azetidin-3-yl)-2-((6-(trifluoromethyl)quinazolin-4-yl)amino)acetamide], the IC50 was determined as 714 nM. For `O=C(CNc1cc(C(F)(F)F)nc2ccc(C(F)(F)F)cc12)NC1CN([C@H]2CC[C@@](O)(c3nccs3)CC2)C1` [Example 24, 2-((2,6-bis(trifluoromethyl)quinolin-4-yl)amino)-N-(1((1r-4r)-4-hydroxy-4-(thiazol-2-yl)cyclohexyl)azetidin-3-yl)acetamide] the value was 28 nM; for `CCC(O)[C@H]1CC[C@@H](N2CC(NC(=O)CNc3cc(C(F)(F)F)nc4ccc(C(F)(F)F)cc34)C2)CC1` (some centres unmarked) [Example 25, 2-((2,6-bis(trifluoromethyl)quinolin-4-yl)amino)-N-(1((-1R,4s)-4-(1-hydroxypropyl)cyclohexyl)azetidin-3-yl)acetamide], 99 nM; for `O=C(CNc1ccnc2ccc(C(F)(F)F)cc12)NC1CN([C@H]2CC[C@@](O)(c3nccs3)CC2)C1` [Example 27], 17 nM. For `O=C(CNc1ncnc2ccc(C(F)(F)F)cc12)NC1CN([C@H]2CC[C@@H](C3(O)CC=CC3)CC2)C1` [Example 28], the 50% inhibitory concentration (IC50) was found to be 23 nM. As for `CC(C)(O)[C@H]1CC[C@@H](N2CC(NC(=O)CNc3ncnc4ccc(C(F)(F)F)cc34)C2)CC1` [Example 29, N-(1-((1s,4s)-4-(2-hydroxypropan-2-yl)cyclohexyl)azetidin-3-yl)-2-((6-(trifluoromethyl)quinazolin-4-yl)amino)acetamide], the figure is 33 nM; as for `CCC(O)(CC)[C@H]1CC[C@@H](N2CC(NC(=O)CNc3ncnc4ccc(C(F)(F)F)cc34)C2)CC1` [Example 30, N-(1-((1s,4s)-4-(3-hydroxypentan-3-yl)cyclohexyl)azetidin-3-yl)-2-((6-(trifluoromethyl)quinazolin-4-yl)amino)acetamide], 209 nM. For `C=CCC(O)(CC=C)[C@H]1CC[C@@H](N2CC(NC(=O)CNc3ncnc4ccc(C(F)(F)F)cc34)C2)CC1` [Example 31, N-(1-((1s,4s)-4-(4-hydroxyhepta-1,6-dien-4-yl)cyclohexyl)azetidin-3-yl)-2-((6-(trifluoromethyl)quinazolin-4-yl)amino)acetamide] the value was 300 nM. Consider `CCCC(O)(CCC)[C@H]1CC[C@@H](N2CC(NC(=O)CNc3ncnc4ccc(C(F)(F)F)cc34)C2)CC1` [Example 32, N-(1-((1s,4s)-4-(4-hydroxyheptan-4-yl)cyclohexyl)azetidin-3-yl)-2-((6-(trifluoromethyl)quinazolin-4-yl)amino)acetamide], for which the IC50 was found to be 690 nM. As for `O=C(CNc1ncnc2ccc(C(F)(F)F)cc12)NC1CN([C@H]2CC[C@@H](C3CCCC3)CC2)C1` [Example 33, N-(1-((1s,4s)-4-cyclopentylcyclohexyl)azetidin-3-yl)-2-((6-(trifluoromethyl)quinazolin-4-yl)amino)acetamide], the figure is 140 nM; as for `O=C(CNc1ncnc2ccc(C(F)(F)F)cc12)NC1CN([C@H]2CC[C@@H](C(O)C(F)(F)F)CC2)C1` (stereo partly drawn) [Example 34, N-(1-((1R,4s)-4-(2,2,2-trifluoro-1-hydroxyethyl)cyclohexyl)azetidin-3-yl)-2-((6-(trifluoromethyl)quinazolin-4-yl)amino)acetamide], 73 nM; as for `O=C(CNc1ncnc2ccc(C(F)(F)F)cc12)NC1CN([C@H]2CC[C@@H](C(O)C(F)(F)C(F)(F)C(F)(F)F)CC2)C1` (stereo partly drawn) [Example 35, N-(1-((1R,4s)-4-(2,2,3,3,4,4,4-heptafluoro-1-hydroxybutyl)cyclohexyl)azetidin-3-yl)-2-((6-(trifluoromethyl)quinazolin-4-yl)amino)acetamide], 270 nM. For `C=C(C)[C@H]1CC[C@@H](N2CC(NC(=O)CNc3ncnc4ccc(C(F)(F)F)cc34)C2)CC1` [Example 36, N-(1-((1s,4s)-4-(prop-1-en-2-yl)cyclohexyl)azetidin-3-yl)-2-((6-(trifluoromethyl)quinazolin-4-yl)amino)acetamide] the value was 75 nM. As for `CC(C)[C@]1(O)CC[C@H](N2CC(NC(=O)CNc3ncnc4ccc(C(F)(F)F)cc34)C2)CC1` [Example 37, N-(1-((1r,4r)-4-hydroxy-4-isopropylcyclohexyl)azetidin-3-yl)-2-((6-(trifluoromethyl)quinazolin-4-yl)amino)acetamide], the figure is 235 nM; as for `O=C(CNc1ncnc2ccc(C(F)(F)F)cc12)NC1CN([C@H]2CC[C@@H](C3CCOCC3)CC2)C1` [Example 38, N-(1-((1s,4s)-4-(tetrahydro-2H-pyran-4-yl)cyclohexyl)azetidin-3-yl)-2-((6-(trifluoromethyl)quinazolin-4-yl)amino)acetamide], 160 nM; as for `CN1C(=O)CCC1[C@H]1CC[C@@H](N2CC(NC(=O)CNc3ncnc4ccc(C(F)(F)F)cc34)C2)CC1` (stereo partly drawn) [Example 39, N-(1-((1S,4s)-4-(1-methyl-5-oxopyrrolidin-2-yl)cyclohexyl)azetidin-3-yl)-2-((6-(trifluoromethyl)quinazolin-4-yl)amino)acetamide], 231 nM. For `O=C(CNc1ncnc2ccc(C(F)(F)F)cc12)NC1CN(C2CCC(N3CCCC3=O)CC2)C1` (centres unmarked) [Example 40, N-(1-(4-(2-oxopyrrolidin-1-yl)cyclohexyl)azetidin-3-yl)-2-((6-(trifluoromethyl)quinazolin-4-yl)amino)acetamide], the IC50 was 78 nM.

In the case of `CC(=O)N[C@H]1CC[C@@H](N2CC(NC(=O)CNc3ncnc4ccc(C(F)(F)F)cc34)C2)CC1` [Example 41, N-(1-((1s,4s)-4-acetamidocyclohexyl)azetidin-3-yl)-2-((6-(trifluoromethyl)quinazolin-4-yl)amino)acetamide], the half-maximal inhibitory concentration (IC50) was 670 nM. Consider `CN(C(=O)OCc1ccccc1)[C@H]1CC[C@@H](N2CC(NC(=O)CNc3ncnc4ccc(C(F)(F)F)cc34)C2)CC1` [Example 42], for which the IC50 is 210 nM. For `CC(C)C(=O)N(C)[C@H]1CC[C@@H](N2CC(NC(=O)CNc3ncnc4ccc(C(F)(F)F)cc34)C2)CC1` [Example 43] the value was 510 nM; for `CC(=O)N(C)[C@H]1CC[C@@H](N2CC(NC(=O)CNc3ncnc4ccc(C(F)(F)F)cc34)C2)CC1` [Example 44], 520 nM; for `CCC(=O)N(C)[C@H]1CC[C@@H](N2CC(NC(=O)CNc3ncnc4ccc(C(F)(F)F)cc34)C2)CC1` [Example 45, N-Methyl-N-((1s,4s)-4-(3-(2-((6-(trifluoromethyl)quinazolin-4-yl)amino)acetamido)azetidin-1-yl)cyclohexyl)propionamide], 390 nM.

With `CCCC(=O)N(C)[C@H]1CC[C@@H](N2CC(NC(=O)CNc3ncnc4ccc(C(F)(F)F)cc34)C2)CC1` [Example 46, N-methyl-N-((1s,4s)-4-(3-(2-((6-(trifluoromethyl)quinazolin-4-yl)amino)acetamido)azetidin-1-yl)cyclohexyl)butyramide], the 50% inhibitory concentration (IC50) was 810 nM. As for `CCN(C(=O)OCc1ccccc1)[C@H]1CC[C@@H](N2CC(NC(=O)CNc3ncnc4ccc(C(F)(F)F)cc34)C2)CC1` [Example 47, Benzyl ethyl((1s,4s)-4-(3-(2-((6-(trifluoromethyl)quinazolin-4-yl)amino)acetamido)azetidin-1-yl)cyclohexyl)carbamate], the figure is 160 nM; as for `CCCN(C(=O)OCc1ccccc1)[C@H]1CC[C@@H](N2CC(NC(=O)CNc3ncnc4ccc(C(F)(F)F)cc34)C2)CC1` [Example 48, benzyl propyl((1s,4s)-4-(3-(2-((6-(trifluoromethyl)quinazolin-4-yl)amino)acetamido)azetidin-1-yl)cyclohexyl)carbamate], 300 nM; as for `CN([C@H]1CC[C@@H](N2CC(NC(=O)CNc3ncnc4ccc(C(F)(F)F)cc34)C2)CC1)S(C)(=O)=O` [Example 49, N-(1-((1s,4s)-4-(N-methylmethylsulfonamido)cyclohexyl)azetidin-3-yl)-2-((6-(trifluoromethyl)quinazolin-4-yl)amino)acetamide], 950 nM. For the compound `CCN(C(C)=O)[C@H]1CC[C@@H](N2CC(NC(=O)CNc3ncnc4ccc(C(F)(F)F)cc34)C2)CC1` [Example 50], the IC50 stood at 810 nM. For the compound `CCCN(C=O)[C@H]1CC[C@@H](N2CC(NC(=O)CNc3ncnc4ccc(C(F)(F)F)cc34)C2)CC1` [Example 51, N-(1-((1s,4s)-4-(N-propylformamido)cyclohexyl)azetidin-3-yl)-2-((6-(trifluoromethyl)quinazolin-4-yl)amino)acetamide], the IC50 came out at 37 nM.

Take `O=C(CNc1ncnc2ccc(C(F)(F)F)cc12)NC1CN([C@H]2CC[C@@H](N3CCCCO3)CC2)C1` [Example 52, N-(1-((1s,4s)-4-(1,2-oxazinan-2-yl)cyclohexyl)azetidin-3-yl)-2-((6-(trifluoromethyl)quinazolin-4-yl)amino)acetamide]: the IC50 is 64 nM. As for `O=C(CNc1ncnc2ccc(C(F)(F)F)cc12)NC1CN([C@H]2CC[C@@H](N3CCCO3)CC2)C1` [Example 53, N-(1-((1s,4s)-4-(isoxazolidin-2-yl)cyclohexyl)azetidin-3-yl)-2-((6-(trifluoromethyl)quinazolin-4-yl)amino)acetamide], the figure is 350 nM. As for `O=C(CNc1ncnc2ccc(C(F)(F)F)cc12)NC1CN([C@H]2CC[C@@H](CN3CCCCC3=O)CC2)C1` [Example 54, N-(1-((1s,4s)-4-((2-oxopiperidin-1-yl)methyl)cyclohexyl)azetidin-3-yl)-2-((6-(trifluoromethyl)quinazolin-4-yl)amino)acetamide], the figure is 720 nM; as for `O=C(CNc1ncnc2ccc(C(F)(F)F)cc12)NC1CN([C@H]2CC[C@@H](n3ccccc3=O)CC2)C1` [Example 55, N-(1-((1s,4s)-4-(2-oxopyridin-1-(2H)-yl)cyclohexyl)azetidin-3-yl)-2-((6-(trifluoromethyl)quinazolin-4-yl)amino)acetamide], 15 nM.
